Results from US7981876B2, “Polymorphic and amorphous salt forms of squalamine dilactate” (priority 2005, dated 2011).

Key:
[1] = Heat stress stability at 70° C. for three days, HPLC with ELSD detection; format: physicochemical
Experimental: Samples of amorphous squalamine dilactate and squalamine dilactate recrystallized from ethanol as described in Example 5 were placed in scintillation vials and heated in an oven at 70° C. for three days. A portion of each heat stressed sample was then analyzed by HPLC with ELSD detection and the results compared with the HPLC analysis of unstressed material.

[2] = test system: tails of CD-1®BR mice; assay: Local irritancy of 5-day repeated intravenous injections of squalamine salt forms in mice; format: in vivo
Source text: A Study of Local Irritancy of 5-Day Repeated Intravenous Injections of Different Salt Forms (Ditrifluoroacetate, Dilactate, Digluconate, Diacetate) of MSI-1256 (Squalamine) in Mice
Objective: To determine the local irritancy of 5-day repeated daily intravenous doses of squalamine salt forms in tails of CD-1®BR mice.
Material and Methods: (Animals): Forty-eight male CD-1®BR mice (Charles River Lab). Mean body weight at study initiation was 20.6 gm. (Housing Environment): Mice were housed as groups (maximum 10 mice/box) in plastic mouse boxes with hardwood chip bedding and wire lids. They had access to food (Purina Mouse Chow) and water in bottles ad lib. The boxes were housed in isolator racks that were supplied with one-pass through filtered room air. The room in which the animals were housed was on a 12-hour on/12-hour off light cycle and had controlled temperature (range: 67-76° F.) and humidity (range: 40-70% relative humidity).
Solution prep: A 0.36 mg/mL solution of squalamine ditrifluoroacetate salt (equivalent to 0.25 mg/mL squalamine ditrifluroacetate active moiety) was prepared in D5W. A 0.31 mg/mL solution of squalamine diacetate salt (equivalent to 0.25 mg/mL squalamine diacetate active moiety) was prepared in D5W. A 0.33 mg/mL solution of squalamine dilactate salt (equivalent to 0.25 mg/mL squalamine dilactate active moiety) was prepared in D5W. A 0.45 mg/mL solution of squalamine digluconate salt (equivalent to 0.25 mg/mL squalamine digluconate active moiety) was prepared in D5W. A 1.0 mg/mL solution of magainin-2-amide (positive control) was prepared in D5W. Protocol: Mice were randomly assigned to six groups (8 mice/group) and received daily intravenous (i.v.) injections of solutions of D5W or squalamine salts in the tail vein for five days (study days 0, 1, 2, 3, and 4). […] One group of eight mice received test article magainin-2-amide (10 mg/kg/day; 10 mL/kg/day of a 1 mg/mL solution), which was previously determined to be local vein irritant, as a positive control. Mice were not injected with test article if severity of bruising or swelling (edema) warranted the omission of the injection. Survival was monitored and clinical signs were observed daily for five days of administration of squalamine salts and four days after the last dose (Study Day 8). Clinical signs of irritancy, edema, and bruising were made on days 1, 2, 3, and 4 approximately 24-hours after each injection and immediately prior to that day's injection. The pHs of the solutions of all test articles except magainin-2-amide were checked on Study Day 3. (The same solutions were used throughout the study so a similar pH on all study days may be assumed).

[3] = Accelerated stability study (temperature-based, four weeks) of four salt forms, reversed-phase HPLC of o-phthaldialdehyde derivatized samples; format: physicochemical
Experimental: An accelerated stability study (temperature-based) lasting four weeks was performed on squalamine in four different salt forms. The four salt forms were: dihydrochloride, diacetate, dilactate and D-digluconate. The samples were subjected to temperatures of 40° C., 60° C. and 80° C. The following table summarizes the results of % purity of main peak, squalamine, based on total integrated area. The analysis was performed using reversed-phase HPLC of o-phthaldialdehyde derivatized samples.

[4] = Heat Stressed, 70° C. for three days

% purity of main peak, squalamine, based on total integrated area ([3]; 4w 40° C.) [%] | % purity of main peak, squalamine, based on total integrated area ([3]; 4w 60° C.) [%] | % purity of main peak, squalamine, based on total integrated area ([3]; 4w 80° C.) [%] | % purity of main peak, squalamine, based on total integrated area ([3]; T = 0) [%] | Compound | necrotic mouse tail (mice affected/group) ([2]; mouse, in vivo) | further results
– | – | – | – | CC(C)[C@@H](CC[C@@H](C)[C@H]1CC[C@H]2[C@@H]3[C@H](O)C[C@H]4C[C@@H](NCCCNCCCCN)CC[C@]4(C)[C@H]3CC[C@]12C)OS(=O)(=O)O.C[C@H](O)C(=O)O.C[C@H](O)C(=O)O [Crystallized Squalamine] | – | change in the percentage of the lactylamide impurity when heat stressed ([1]; 70° C. for three days vs unstressed): no significant increase; 24 S Isomer [1, 4]: 0.714%; Lacrylamide [1, 4]: 0.087%; Squalamine [1, 4]: 99.168%; 24 S Isomer ([1]; Unstressed): 0.715%; Lacrylamide ([1]; Unstressed): 0.070%; Squalamine ([1]; Unstressed): 99.187%
87.3 | 81.5 | 62.9 | 94.4 | squalamine diacetate | 1/8 | –
80.9 | 80.6 | 70.9 | 91.8 | squalamine dilactate | – | stability under increasingly severe conditions ([3]; four weeks at 40-80° C., compared to the diacetate and digluconate salts): surprisingly stable
– | – | – | – | squalamine ditrifluoroacetate | 1/8 | mouse tail fell off (mice affected/group) ([2]; mouse, in vivo): 1/8

Compound | % purity of main peak, squalamine, based on total integrated area ([3]; 4w 40° C.) [%] | % purity of main peak, squalamine, based on total integrated area ([3]; 4w 60° C.) [%] | % purity of main peak, squalamine, based on total integrated area ([3]; 4w 80° C.) [%] | % purity of main peak, squalamine, based on total integrated area ([3]; T = 0) [%] | necrotic mouse tail (mice affected/group) ([2]; mouse, in vivo) | further results
squalamine digluconate | 72.6 | 60.7 | 4.9 | 87.8 | – | tolerance of treatment (swelling, bruising, irritation of tails) ([2]; 2.5 mg/kg/day i.v. tail vein for five days, 0.25 mg/mL solutions in D5W, compared with squalamine diacetate and ditrifluoroacetate): tolerated slightly better
